According to the NIST ThermoML archive (doi:10.1021/acs.jced.7b00646):

Experiment: xn = mol fraction of the nth substance listed
Details: 318.15 K, 101.3 kPa, Liquid, Alternating current cell with electrodes

CC1COC(=O)O1 (centres undefined) [4-methyl-1,3-dioxolan-2-one] + CCCC[n+]1ccn(C)c1.O=S(=O)([N-]S(=O)(=O)C(F)(F)F)C(F)(F)F
Details	electrical conductivity [S/m]
x2 = 0.05	1.08
x2 = 0.1	1.51
x2 = 0.2001	1.75
x2 = 0.2999	1.68
x2 = 0.4	1.53
x2 = 0.5002	1.36
x2 = 0.5998	1.224
x2 = 0.7	1.114
x2 = 0.8	1.009
x2 = 0.8999	0.924

CCCC[n+]1ccn(C)c1.O=S(=O)([N-]S(=O)(=O)C(F)(F)F)C(F)(F)F + CC1COC(=O)O1
Details	electrical conductivity [S/m]
x1 = 1	0.877

CCCC[n+]1ccn(C)c1.O=S(=O)([N-]S(=O)(=O)C(F)(F)F)C(F)(F)F + O=C1CCCO1
Details	electrical conductivity [S/m]
x1 = 1	0.877

CCCC[n+]1ccn(C)c1.O=S(=O)([N-]S(=O)(=O)C(F)(F)F)C(F)(F)F + O=C1OCCO1
Details	electrical conductivity [S/m]
x1 = 1	0.877

O=C1OCCO1 [ethylene carbonate] + CCCC[n+]1ccn(C)c1.O=S(=O)([N-]S(=O)(=O)C(F)(F)F)C(F)(F)F
Details	electrical conductivity [S/m]
x2 = 0.05	1.36
x2 = 0.1	1.87
x2 = 0.2001	2.06
x2 = 0.2999	1.908
x2 = 0.4	1.7
x2 = 0.5002	1.504
x2 = 0.5998	1.313
x2 = 0.7	1.17
x2 = 0.8	1.07
x2 = 0.8999	0.965

O=C1CCCO1 [γ-butyrolactone] + CCCC[n+]1ccn(C)c1.O=S(=O)([N-]S(=O)(=O)C(F)(F)F)C(F)(F)F
Details	electrical conductivity [S/m]
x2 = 0.05	1.43
x2 = 0.1	1.95
x2 = 0.2001	2.13
x2 = 0.2999	1.96
x2 = 0.4	1.72
x2 = 0.5002	1.506
x2 = 0.5998	1.307
x2 = 0.7	1.16
x2 = 0.8	1.03
x2 = 0.8999	0.937

CCCC[n+]1ccn(C)c1.O=S(=O)([N-]S(=O)(=O)C(F)(F)F)C(F)(F)F + COC(=O)OC
Details	electrical conductivity [S/m]
x1 = 0.05	0.587
x1 = 0.1	1.36
x1 = 0.2001	2.12
x1 = 0.2999	2.14
x1 = 0.4	1.93
x1 = 0.5002	1.68
x1 = 0.5998	1.42
x1 = 0.7	1.23
x1 = 0.8	1.08
x1 = 0.8999	0.965
x1 = 1	0.877
